Format in all cases: physicochemical
Series [1] is described as follows: Thermodynamic stability of the crystalline forms (own investigations). Particulars: compared with the other crystalline forms. The source says:
Own investigations have shown that there exist two distinct crystalline forms, hereinafter referred to as form A and form B, as well as a number of further solvates, in particular the methanol, ethanol, isopropanol, dichloromethane, acetone, methyl ethyl ketone and tetrahydrofuran solvates.

A short description of series [2]: Hygroscopicity: water adsorption when stored under humid conditions. Particulars: hygroscopic, water released between 50° C. and 200° C. when heated at 10° C./minute. Here is the method:
Polymorph form A is a solid powder with a particle size in the range from 1 to 500 μm, preferably 5 to 300 μm, and more preferably 5 to 200 μm. The polymorph A is hygroscopic and adsorbs water to a content of about 5 percent by weight (when stored under humid conditions), which is continuously released between 50° C. and 200° C., when heated at a rate of 10° C./minute. The polymorph A is especially suitable as an intermediate and starting material to produce stable polymorph forms.

The nature of series [3]: Light sensitivity of solutions and suspensions. The conditions noted are these: in particular above ambient temperature.

With `COc1ccccc1Oc1c(NS(=O)(=O)c2ccc(C)cn2)nc(-c2ccncc2)nc1OC` [form B, 5-methyl-pyridine-2-sulfonic acid [6-methoxy-5-(2-methoxy-phenoxy)-2-pyridin-4-yl-pyrimidin-4-yl]-amide], the “thermodynamic stability of crystalline form” value in series [1] is on record as “thermodynamically stable”. In the case of `COc1ccccc1Oc1c(NS(=O)(=O)c2ccc(C)cn2)nc(-c2ccncc2)nc1OC` [form A, 5-methyl-pyridine-2-sulfonic acid [6-methoxy-5-(2-methoxy-phenoxy)-2-pyridin-4-yl-pyrimidin-4-yl]-amide], the “adsorbs water to a content of” value in series [2] is listed as “about 5 percent by weight”. With `COc1ccccc1Oc1c(NS(=O)(=O)c2ccc(C)cn2)nc(-c2ccncc2)nc1OC` [SPP301, 5-methyl-pyridine-2-sulfonic acid [6-methoxy-5-(2-methoxy-phenoxy)-2-pyridin-4-yl-pyrimidin-4-yl]-amide], the sensitivity to light entry in series [3] is given as “sensitive to light”.
